Patent publication US7045528B2, “Benzofused heterozryl amide derivatives of thienopyridines useful as therapeutic agents, pharmaceutical compositions including the same, and methods for their use” (Agouron Pharmaceuticals, Inc., priority 2002, dated 2006)
Where two headings read alike, the source gives them in different places.

Columns and labels:
[1] = biological target: T1, PDGFRβ (Homo sapiens, UniProt P09619); experiment: PAE-PDGFRβ phosphorylation in PAE-PDGFRB cells assay; assay type: cell-based
T1 construct: expressed in transfected cells; host or cells: porcine aorta endothelial (PAE)-PDGFRβ cells
T1 sequence (P09619 33-1106): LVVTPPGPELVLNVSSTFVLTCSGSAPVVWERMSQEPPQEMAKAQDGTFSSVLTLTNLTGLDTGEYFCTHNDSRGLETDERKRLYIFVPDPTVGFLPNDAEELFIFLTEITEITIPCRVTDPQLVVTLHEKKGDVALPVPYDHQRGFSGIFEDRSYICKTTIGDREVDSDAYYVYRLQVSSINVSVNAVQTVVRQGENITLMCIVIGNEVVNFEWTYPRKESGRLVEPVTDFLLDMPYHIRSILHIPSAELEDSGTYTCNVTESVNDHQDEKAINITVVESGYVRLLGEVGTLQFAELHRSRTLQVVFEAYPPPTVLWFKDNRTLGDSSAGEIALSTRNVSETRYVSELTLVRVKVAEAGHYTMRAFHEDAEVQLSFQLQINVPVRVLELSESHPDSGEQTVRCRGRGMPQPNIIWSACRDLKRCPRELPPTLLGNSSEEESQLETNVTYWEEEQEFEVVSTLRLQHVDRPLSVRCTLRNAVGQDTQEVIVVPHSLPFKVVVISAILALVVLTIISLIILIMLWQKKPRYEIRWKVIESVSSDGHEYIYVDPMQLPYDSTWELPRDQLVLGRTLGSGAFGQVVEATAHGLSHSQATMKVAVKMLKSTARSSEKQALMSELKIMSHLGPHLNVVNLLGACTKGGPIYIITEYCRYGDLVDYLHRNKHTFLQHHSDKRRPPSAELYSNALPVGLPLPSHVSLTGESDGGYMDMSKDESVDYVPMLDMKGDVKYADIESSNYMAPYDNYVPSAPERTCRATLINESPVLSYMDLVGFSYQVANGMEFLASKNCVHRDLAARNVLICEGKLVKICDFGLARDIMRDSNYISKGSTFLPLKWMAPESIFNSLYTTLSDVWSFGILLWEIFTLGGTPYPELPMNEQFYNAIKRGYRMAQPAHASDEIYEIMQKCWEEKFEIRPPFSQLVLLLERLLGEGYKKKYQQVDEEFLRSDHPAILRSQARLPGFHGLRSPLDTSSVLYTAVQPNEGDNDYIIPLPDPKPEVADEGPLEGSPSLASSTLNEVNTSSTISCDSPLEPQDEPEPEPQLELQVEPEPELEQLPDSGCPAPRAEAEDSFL
Procedure: PAE-PDGFRβ Phosphorylation in PAE-PDGFRB Cells Assay
This assay determines the ability of a test compound to inhibit the autophosphorylation of PDGFRβ in porcine aorta endothelial (PAE)-PDGFRβ cells. PAE cells that overexpress human PDGFRβ were used in this assay. The cells were cultured in Ham's F12 media supplemented with 10% fetal bovine serum (FBS) and 400 ug/ml G418. Twenty thousands cells were seeded in each well of a 96-well plate in 50 μL of growth media and allowed to attach for 6 hours at 37° C. Cells were then exposed to the starvation media (Ham's F12 media supplemented with 0.1% FBS) for 16 hours. After the starvation period was over, 10 μL of test agent in 5% DMSO in starvation media were added to the test wells and 10 μL of the vehicle (5% DMSO in starvation media) were added into the control wells. The final DMSO concentration in each well was 0.5%. Plates were incubated at 37° C. for 1 hour and the cells were then stimulated with 1 μg/mL PDGF-BB (R & D System) in the presence of 2 mM Na3VO4 for 8 minutes. The cells were washed once with 1 mm Na3VO4 in HBSS and lysed by adding 50 μL per well of lysis buffer. One hundred μL of dilution buffer were then added to each well and the diluted cell lysate was transferred to a 96-well goat ant-rabbit coated plate (Pierce), which was pre-coated with Rabbit anti Human PDGFRβ antibody (Santa Cruz). The plates were incubated at room temperature for 2 hours and washed seven times with 1% Tween 20 in PBS. HRP-PY20 (Santa Cruz) was diluted and added to the plate for a 30-minute incubation. Plates were then washed again and TMB peroxidase substrate (Kirkegaard & Perry) was added for a 10-minute incubation. One hundred μL of 0.09 N H2SO4 was added into each well of the 96-well plate to stop the reaction. Phosphorylation status was assessed by spectrophotometer reading at 450 nm. IC50 values were calculated by curve fitting using a four-parameter analysis.

[2] = biological target: T2, unphosphorylated VEGF-R2Δ50 (FLVK) (Homo sapiens, UniProt P35968, DEL940-989/E990V); experiment: VEGF-R2 coupled spectrophotometric assay, unphosphorylated VEGF-R2Δ50 (FLVK); assay type: biochemical; settings: for inhibition at 0.1 µM: percent inhibition at 100 nM, library amides from Example 101 (R101), crude mixtures in DMSO, read-out: FLVK (% @ 100 nM); for inhibition at 0.05 µM: 50 nM compound, read-out: FLVK (% inh @ 50 nM); for inhibition at 0.05 µM / Ki: unphosphorylated VEGF-R2Δ50
T2 construct: VEGF-R2Δ50 contains residues 806–939 and 990–1171; made in house; host or cells: baculovirus/insect cell system
T2 sequence (P35968 with tags, fused parts or gaps DEL940-989/E990V limits assumed): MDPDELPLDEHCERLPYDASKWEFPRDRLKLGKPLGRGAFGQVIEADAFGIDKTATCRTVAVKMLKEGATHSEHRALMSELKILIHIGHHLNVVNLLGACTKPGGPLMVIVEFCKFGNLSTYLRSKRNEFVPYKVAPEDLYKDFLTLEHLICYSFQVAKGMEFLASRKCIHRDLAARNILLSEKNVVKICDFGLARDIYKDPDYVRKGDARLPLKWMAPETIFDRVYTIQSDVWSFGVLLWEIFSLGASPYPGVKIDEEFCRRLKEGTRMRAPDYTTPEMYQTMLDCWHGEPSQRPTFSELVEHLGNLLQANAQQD
From the text: VEGF-R2 Construct for Assay:
This construct determines the ability of a test compound to inhibit tyrosine kinase activity. A construct (VEGF-R2Δ50) of the cytosolic domain of human vascular endothelial growth factor receptor 2 (VEGF-R2) lacking the 50 central residues of the 68 residues of the kinase insert domain was expressed in a baculovirus/insect cell system. Of the 1356 residues of full-length VEGF-R2, VEGF-R2Δ50 contains residues 806–939 and 990–1171, and also one point mutation (E990V) within the kinase insert domain relative to wild-type VEGF-R2. Autophosphorylation of the purified construct was performed by incubation of the enzyme at a concentration of 4 μM in the presence of 3 mM ATP and 40 mM MgCl2 in 100 mM HEPES, pH 7.5, containing 5% glycerol and 5 mM DTT, at 4° C. for 2 h. […] See Parast et al., Biochemistry, 37, 16788–16801 (1998).
Coupled Spectrophotometric (FLVK-P) Assay
The production of ADP from ATP that accompanies phosphoryl transfer was coupled to oxidation of NADH using phosphoenolpyruvate (PEP) and a system having pyruvate kinase (PK) and lactic dehydrogenase (LDH). The oxidation of NADH was monitored by following the decrease of absorbance at 340 nm (e340=6.22 cm^−1 mM^−1) using a Beckman DU 650 spectrophotometer. Assay conditions for phosphorylated VEGF-R2Δ50 (indicated as FLVK-P in the tables below) were the following: 1 mM PEP; 250 μM NADH; 50 units of LDH/mL; 20 units of PK/mL; 5 mM DTT; 5.1 mM poly(E4Y1); 1 mM ATP; and 25 mM MgCl2 in 200 mM HEPES, pH 7.5. Assay conditions for unphosphorylated VEGF-R2Δ50 (indicated as FLVK in the tables) were the following: 1 mM PEP; 250 μM NADH; 50 units of LDH/mL; 20 units of PK/mL; 5 mM DTT; 20 mM poly(E4Y1); 3 mM ATP; and 60 mM MgCl2 and 2 mM MnCl2 in 200 mM HEPES, pH 7.5. Assays were initiated with 5 to 40 nM of enzyme. Ki values were determined by measuring enzyme activity in the presence of varying concentrations of test compounds. […] The binding inhibitions were fitted to equation as described by Morrison. The data were analyzed using Enzyme Kinetic and Kaleidagraph software.

[3] = library amides from Example 101 (R101), crude mixtures in DMSO, read-out: PAE PDGFR autophos IC50
[4] = PAE cells overexpressing human PDGFRβ, PDGF-BB stimulated, read-out: PAE PDGFR autophos IC50 (nM) AVG

SMILES | IC50 [1, 3] [nM] | inhibition at 0.1 µM [2] [%] | IC50 [1, 4] [nM] | inhibition at 0.05 µM [2] [%] | Ki [2] [nM] | IC50 [1] [nM]
COC(=O)[C@H](Cc1c[nH]cn1)NC(=O)c1c(C)oc2cc(Oc3ccnc4ccsc34)ccc12 | 49 | 52 |  |  |  | 
COC(=O)C1CN1C(=O)c1c(C)oc2cc(Oc3ccnc4ccsc34)ccc12 (stereo not drawn) | > 100 | 51 |  |  |  | 
Cc1oc2cc(Oc3ccnc4ccsc34)ccc2c1C(=O)Nc1cc[nH]n1 | > 100 | 91 |  |  |  | 
CNC(=O)c1c(C)n(C)c2cc(Oc3ccnc4cc(C(=O)N5CC[C@@H](N(C)C)C5)sc34)ccc12 [Example 27, 6-[(2-{[(3R)-3-(Dimethylamino)pyrrolidin-1-yl]carbonyl}thieno[3,2-b]pyridin-7-yl)oxy]-N,1,2-trimethyl-1H-indole-3-carboxamide] |  |  | 205 | 13 | 96 | 
CNC(=O)c1c(C)n(C)c2cc(Oc3ccnc4cc(C(=O)N(C)CCCN(C)C)sc34)ccc12 [Example 32, N-[3-(Dimethylamino)propyl]-7-({1,2-dimethyl-3-[(methylamino)carbonyl]-1H-indol-6-yl}oxy)-N-methylthieno[3,2-b]pyridine-2-carboxamide] |  |  | 29.2 | 22 | 39.4 | 
CNC(=O)c1c(C)n(C)c2cc(Oc3ccnc4cc(C(=O)N5CC[C@@H](N(C)C(=O)OC(C)(C)C)C5)sc34)ccc12 [Example 34, tert-Butyl-(3R)-1-{[7-({1,2-dimethyl-3-[(methylamino)carbonyl]-1H-indol-6-yl}oxy)thieno[3,2-b]pyridin-2-yl]carbonyl}pyrrolidin-3-yl(methyl)carbamate] |  |  | 31.3 | 45 | 11.4 | 
CNC(=O)c1c(C)n(C)c2cc(Oc3ccnc4cc(C(=O)N5CC[C@@H](NC)C5)sc34)ccc12 [Example 35, 1,2-Dimethyl-6-[2-(3-methylamino-pyrrolidine-1-carbonyl)-thieno[3,2-b]pyridin-7-yloxy]-1H-indole-3-carboxylic acid methylamide] |  |  |  | 23 | 35.2 | 70
CCc1c(C(=O)NC)c2ccc(Oc3ccnc4cc(-c5nccn5C)sc34)cc2n1C [Example 74, 2-Ethyl-1-methyl-6-[2-(1-methyl-1H-imidazol-2-yl)-thieno[3,2-b]pyridin-7-yloxy]-1H-indole-3-carboxylic acid methylamide] |  |  | 313 | 43 | 12.7 | 
CO[C@@H]1CCN(C(=O)c2cc3nccc(Oc4ccc5c(C(=O)NCCO)c(C)oc5c4)c3s2)C1 [Example 93, 6-[2-(3-Methoxy-pyrrolidine-1-carbonyl)-thieno[3,2-b]pyridin-7-yloxy]-2-methyl-benzofuran-3-carboxylic acid 2-hydroxyethyl amide] |  |  | 44 | 84 | 2.72 | 
CNC(=O)c1c(C)oc2cc(Oc3ccnc4ccsc34)ccc12 [Example 99, 6-[Thieno(3,2-b)pyridin-7-yloxy]-2-methyl-benzofuran-3-carboxylic acid methyl amide] |  |  | 563 | 66 | 4.68 | 
Cc1oc2cc(Oc3ccnc4ccsc34)ccc2c1C(=O)NCCN1CCOCC1 [Example 103, 2-Methyl-6-[thieno[3,2-b]pyridin-7-yloxy]benzofuran-3-carboxylic acid (2-morpholin-4-yl-ethyl)-amide] |  |  | 203 | 52 | 7 | 
CCCCNC(=O)c1c(C)oc2cc(Oc3ccnc4ccsc34)ccc12 [Example 105, 2-Methyl-6-[Thieno(3,2-b)pyridin-7-yloxy]benzofuran-3-carboxylic acid butyl amide] |  |  | 127 | 61 | 8.37 | 
Cc1oc2cc(Oc3ccnc4ccsc34)ccc2c1C(=O)NCCCN1CCOCC1 [Example 112, 2-Methyl-6-(thieno[3,2-b]pyridin-7-yloxy)benzofuran-3-carboxylic acid (3-morpholin-4-ylpropyl)-amide] |  |  |  | 91 |  | 
Cc1oc2cc(Oc3ccnc4ccsc34)ccc2c1C(=O)Nc1ccc2[nH]ccc2c1 [Example 113, 2-Methyl-6-(thieno[3,2-b]pyridin-7-yloxy)-benzofuran-3-carboxylic acid (1H-indol-5-yl)-amide] |  |  |  | 99 |  | 
CNC(=O)c1c(C)sc2cc(Oc3ccnc4cc(COCCN5CCCC5)sc34)ccc12 [Example 114, 2-Methyl-6(2-[2-(pyrrolidin-1-yl)ethoxymethyl]thieno[3,2-b]pyridin-7-yloxy)benzo[b]thiophene-3-carboxylic acid methylamide] |  |  |  | 16 | 119 | 
CNC(=O)c1c(C)sc2cc(Oc3ccnc4cc(CN5CCCC5)sc34)ccc12 [Example 115, 2-Methyl-6-(2-[pyrrolidin-1-ylmethyl]thieno[3,2-b]pyridin-7-yloxy)benzo[b]thiophene-3-carboxylic acid methylamide] |  |  |  | 4 |  | 
CNC(=O)c1c(C)sc2cc(Oc3ccnc4cc(CN(C)C)sc34)ccc12 [Example 116, 6-(2-[Dimethylaminomethyl]thieno[3,2-b]pyridin-7-yloxy)-2-methylbenzo[b]thiophene-3-carboxylic acid methylamide] |  |  |  | 4 |  | 
COC[C@@H]1CCCN1C(=O)c1cc2nccc(Oc3ccc4c(C(=O)NCCCO)c(C)sc4c3)c2s1 [Example 122, 6-[(2-{[(2S)-2-(Methoxymethyl)pyrrolidin-1-yl]carbonyl}thieno[3,2-b]pyridin-7-yl)oxy]-2-methylbenzo[b]thiophene-3-carboxylic acid 3-hydroxypropylamide] |  |  | 351 | 58 | 5.14 | 
Cc1sc2cc(Oc3ccnc4ccsc34)ccc2c1C(=O)NCCN1CCOCC1 [Example 133, 2-Methyl 6-(thieno[3,2-b]pyridin-7-yloxy)benzo[b]thiophene-3-carboxylic acid (2-morpholin-4-yl)ethylamide] |  |  | 468 | 40 | 5.9 | 
Cc1cc2nccc(Oc3ccc4c(C(=O)NCCN5CCOCC5)c(C)sc4c3)c2s1 [Example 139, 2-Methyl-6-(2-methylthieno[3,2-b]pyridin-7-yloxy)benzo[b]thiophene-3-carboxylic acid (2-morpholin-4-yl-ethyl)-amide] |  |  |  | 40 |  | 
Cc1cc2nccc(Oc3ccc4c(C(=O)NCCCN5CCOCC5)c(C)sc4c3)c2s1 [Example 140, 2-Methyl-6-(2-methylthieno[3,2-b]pyridin-7-yloxy)benzo[b]thiophene-3-carboxylic acid (3-morpholin-4ylpropyl)-amide] |  |  |  | 90 |  | 
Cc1oc2cc(Oc3ccnc4ccsc34)ccc2c1C(=O)NCCN1CCOCC1 [drawing 310] | 50 |  |  |  |  | 
